Experimental data reported in patent US9232796B2, “Herbicidal compositions comprising 4-amino-3-chloro-5-fluoro-6-(4-chloro-2-fluoro-3-methoxyphenyl) pyridine-2-carboxylic acid or a derivative thereof and acetyl-CoA carboxylase (ACCase) inhibitors” (DOW AGROSCIENCES LLC, priority 2012, dated 2016).

How the values were obtained:
ECHOR [1] = experiment: Example V (second) postemergence foliar-applied ternary mixtures, greenhouse, direct seeded rice weeds; type: in vivo, Echinochloa oryzoides (Ard.) Fritsch
Procedure: Seeds or nutlets of the desired test plant species were planted in a soil matrix prepared by mixing a sandy loam or loam soil (e.g., 32 percent silt, 23 percent clay, and 45 percent sand, with a pH of about 6.5 and an organic matter content of about 1.9 percent) and calcareous grit in an 80 to 20 ratio. The soil matrix was contained in plastic pots with a volume of 1 quart and a surface area of 83.6 square centimeters (cm^2). […] The plants were grown for 8-22 days in a greenhouse with an approximate 14 hr. photoperiod which was maintained at about 29° C. during the day and 26° C. during the night. Nutrients (Peters Excel® 15-5-15 5-Ca 2-Mg and iron chelate) were applied in the irrigation solution as needed and water was added on a regular basis. Supplemental lighting was provided with overhead metal halide 1000-Watt lamps as necessary. The plants were employed for testing when they reached the first through fourth true leaf stage.
(§1) Treatments consisted of the benzyl ester of 4-amino-3-chloro-5-fluoro-6-(4-chloro-2-fluoro-3-methoxy-phenyl)pyridine-2-carboxylic acid (Compound A), formulated as an SC (suspension concentrate), an ACCase inhibitor, and a third herbicidal component, each applied alone and in ternary combination. Forms of compound A were applied on an acid equivalent basis.
For treatments comprised of formulated compounds, measured amounts of compounds were placed individually in 25 mL glass vials and diluted in a volume of 1.25% (v/v) Agri-Dex® crop oil concentrate to obtain 12× stock solutions. […] Application solutions were prepared by adding an appropriate amount of each stock solution (e.g., 1 mL) and diluted to the appropriate final concentrations with the addition of 9 mL of an aqueous mixture of 1.25% (v/v) crop oil concentrate so that the final spray solutions contained 1.25% (v/v) crop oil concentrate.
As required, additional water and/or 97:3 v/v acetone/DMSO was added to individual application solutions so that the final acetone and DMSO concentrations of the application solutions being compared were 8.1% and 0.25%, respectively.
(§2) All stock solutions and applications solutions were visually inspected for compound compatibility prior to application. Spray solutions were applied to the plant material with an overhead Mandel track sprayer equipped with a 8002E nozzles calibrated to deliver 187 L/ha over an application area of 0.503 m^2 at a spray height of 18 inches (46 cm) above average plant canopy height. Control plants were sprayed in the same manner with the solvent blank.
(§3) The treated plants and control plants were placed in a greenhouse as described above and watered by sub-irrigation to prevent wash-off of the test compounds. After approximately 3 weeks, the condition of the test plants as compared with that of the untreated plants was determined visually and scored on a scale of 0 to 100 percent where 0 corresponds to no injury or growth inhibition and 100 corresponds to complete kill.
(§4) Colby's equation was used to determine the herbicidal effects expected from the mixtures (Colby, S. R. 1967. Calculation of the synergistic and antagonistic response of herbicide combinations. Weeds 15:20-22.).
(§5) The following equation was used to calculate the expected activity of mixtures containing three active ingredients, A, B, and C: Expected=A+B+C−((A×B+A×C+B×C)/100)+(A×B×C/10000)

ECHCG [2] = experiment: Example VI in-water applied ternary mixtures, greenhouse, transplanted paddy rice weeds; type: in vivo, Echinochloa crus-galli (L.) Beauv.
Outline: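 Compound A (SC, acid-equivalent basis) alone or with cyhalofop-R-butyl or metamifop plus a third herbicide, injected into paddy water of greenhouse-grown transplanted rice and weeds at 1st–4th leaf stage (~29/26 °C). Visual injury scored 0–100% after ~3 weeks vs untreated; expected mixture effects by Colby's equation.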

ECHOR [3] = experiment: as above; type: in vivo, Echinochloa oryzoides (Ard.) Fritsch
Procedure: (§6) Weed seeds or nutlets of the desired test plant species were planted in puddled soil (mud) prepared by mixing a shredded, non-sterilized mineral soil (50.5 percent silt, 25.5 percent clay, and 24 percent sand, with a pH of about 7.6 and an organic matter content of about 2.9 percent) and water at a 1:1 volumetric ratio. The prepared mud was dispensed in 365 mL aliquots into 16-ounce (oz.) non-perforated plastic pots with a surface area of 86.59 square centimeters (cm^2) leaving a headspace of 3 centimeters (cm) in each pot. Mud was allowed to dry overnight prior to planting or transplanting. Rice seeds were planted in Sun Gro MetroMix® 306 planting mixture, which typically has a pH of 6.0 to 6.8 and an organic matter content of about 30 percent, in plastic plug trays. Seedlings at the second or third leaf stage of growth were transplanted into 860 mL of mud contained in 32-oz. non-perforated plastic pots with a surface area of 86.59 cm^2 4 days prior to herbicide application. The paddy was created by filling the headspace of the pots with 2.5 to 3 cm of water. When required to ensure good germination and healthy plants, a fungicide treatment and/or other chemical or physical treatment was applied. The plants were grown for 4-22 days in a greenhouse with an approximate 14 hr. photoperiod which was maintained at about 29° C. during the day and 26° C. during the night. Nutrients were added as Osmocote® (19:6:12, N:P:K+minor nutrients) at 2 g per 16-oz. pot and 4 g per 32-oz. pot. Water was added on a regular basis to maintain the paddy flood, and supplemental lighting was provided with overhead metal halide 1000-Watt lamps as necessary. The plants were employed for testing when they reached the first through fourth true leaf stage.
(§7) Treatments consisted of the benzyl ester of 4-amino-3-chloro-5-fluoro-6-(4-chloro-2-fluoro-3-methoxy-phenyl)pyridine-2-carboxylic acid (Compound A), formulated as an SC (suspension concentrate), an ACCase inhibitor herbicide, and a third herbicidal component, each applied alone and in ternary combination. Forms of compound A were applied on an acid equivalent basis.
(§8) The ACCase inhibitor component was applied on an active ingredient basis and included cyhalofop-R-butyl formulated as Clincher® G and metamifop formulated as Metamifop EC. Other herbicidal components were applied on an active ingredient or acid equivalent basis depending on the compound and included penoxsulam formulated as Grasp® SC, bentazon sodium formulated as Basagran®, triclopyr […] (TEA) salt formulated as Grandstand® R, benzobicyclon formulated as Benzobicyclon, benfuresate formulated as Full Slot® WG, pyraclonil formulated as Pyraclon® Flowable, mefenacet (technical grade material), and pretilachlor (technical grade material).
(§9) Treatment requirements for each compound or herbicidal component were calculated based upon the rates being tested, the concentration of active ingredient or acid equivalent in the formulation, an application volume of 1 mL per component per pot, and an application area of 86.59 cm^2 per pot.
(§10) For formulated compounds, a measured amount was placed in an individual 100 or 200 mL glass vial and was dissolved in a volume of 1.25% (v/v) Agri-Dex® crop oil concentrate to obtain application solutions.
(§11) For technical grade compounds, a weighed amount was placed in an individual 100 to 200 mL glass vial and was dissolved in a volume of acetone to obtain concentrated stock solutions.
(§12) Applications were made by injecting with a pipetter appropriate amounts of the application solutions, into the aqueous layer of the paddy. Control plants were treated in the same manner with the solvent blank. Applications were made so that all treated plant material received the same concentrations of acetone and crop oil concentrate.
(§13) The treated plants and control plants were placed in a greenhouse as described above and water was added as needed to maintain a paddy flood. […]

CYPRO = experiment: as above; type: in vivo, Cyperus rotundus L.
Procedure: as §6, §7, §8, §9, §10, §11, §12, §13

FIMMI = experiment: as above; type: in vivo, Fimbristylis miliacea (L.) Vahl
Procedure: as §6, §7, §8, §9, §10, §11, §12, §13

IPOHE = experiment: Example V (second) postemergence foliar-applied ternary mixtures, greenhouse, direct seeded rice weeds; type: in vivo, Ipomoea hederacea Jacq.; conditions: Penoxsulam 8.75 gai/ha
Source text: as §2, §3, §4, §5

CYPIR = experiment: as above; type: in vivo, Cyperus iria L.
Procedure: as §3, §4, §5

SCPMA = experiment: Example VI in-water applied ternary mixtures, greenhouse, transplanted paddy rice weeds; type: in vivo, Schoenoplectus maritimus (L.) Lye; conditions: 5 gai/ha
Procedure: as §12
The treated plants and control plants were placed in a greenhouse as described above and water was added as needed to maintain a paddy flood. After approximately 3 weeks the condition of the test plants as compared with that of the untreated plants was determined visually and scored on a scale of 0 to 100 percent where 0 corresponds to no injury or growth inhibition and 100 corresponds to complete kill.
as §4
The following equation was used to calculate the expected activity of mixtures containing three active ingredients, A. B, and C: Expected=A+B+C−((A×B+A×C+B×C)/100)+(A×B×C/10000)

ECHCG [4] = experiment: Example V (second) postemergence foliar-applied ternary mixtures, greenhouse, direct seeded rice weeds; type: in vivo, Echinochloa crus-galli (L.) Beauv.; conditions: 17.5 gae/ha
Outline: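 Compound A (SC, acid equivalent), an ACCase inhibitor and a third herbicide were sprayed alone and as ternary mixtures postemergence at 187 L/ha with 1.25% v/v crop oil concentrate on greenhouse plants at the 1st–4th true leaf stage (29/26 °C day/night, ~14 h photoperiod). Injury was scored visually at ~3 weeks (0–100%) against untreated plants, and Colby's equation gave the expected mixture effects.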

SCPJU [5] = experiment: as above; type: in vivo, Schoenoplectus juncoides (Roxb.) Palla; conditions: 17.5 gae/ha
Source text: Seeds or nutlets of the desired test plant species were planted in a soil matrix prepared by mixing a sandy loam or loam soil (e.g., 32 percent silt, 23 percent clay, and 45 percent sand, with a pH of about 6.5 and an organic matter content of about 1.9 percent) and calcareous grit in an 80 to 20 ratio. The soil matrix was contained in plastic pots with a volume of 1 quart and a surface area of 83.6 square centimeters (cm^2). When required to ensure good germination and healthy plants, a fungicide treatment and/or other chemical or physical treatment was applied. The plants were grown for 8-22 days in a greenhouse with an approximate 14 hr. photoperiod which was maintained at about 29° C. during the day and 26° C. during the night. Nutrients (Peters Excel® 15-5-15 5-Ca 2-Mg and iron chelate) were applied in the irrigation solution as needed and water was added on a regular basis. Supplemental lighting was provided with overhead metal halide 1000-Watt lamps as necessary. The plants were employed for testing when they reached the first through fourth true leaf stage.
as §1
The ACCase inhibitor component was applied on an active ingredient basis and included cyhalofop-R-butyl formulated as Clincher® SF, fenoxaprop-p-ethyl formulated as RiceStar® HT, and profoxydim formulated as Aura® 20EC. Other herbicidal components were applied on an active ingredient or acid equivalent basis depending on the compound and included penoxsulam formulated as Grasp® SC, bentazon sodium formulated as Basagran®, triclopyr […] (TEA) salt formulated as Grandstand® R, bispyribac sodium formulated as Regiment® 80WP, imazamox ammonium formulated as Beyond®, benzobicyclon, quinclorac formulated as Facet® 75DF, glyphosate dimethylammonium (DMA) salt formulated as Durango® DMA, glufosinate ammonium formulated as Ignite® 280, fentrazamide formulated as an emulsifiable concentrate (EC), propyrisulfuron formulated as Zeta One®, and indanofan (technical grade material).
Treatment requirements were calculated based upon the rates being tested, the concentration of active ingredient or acid equivalent in the formulation, and a 12 mL application volume at a rate of 187 L/ha.
For treatments comprised of formulated compounds, measured amounts of compounds were placed individually in 25 mL glass vials and diluted in a volume of 1.25% (v/v) Agri-Dex® crop oil concentrate to obtain 12× stock solutions. […]

ECHCO = experiment: as above; type: in vivo, Echinochloa colona (L.) Link; conditions: 17.5 gae/ha
Procedure: as §3, §4, §5

SCPJU [6] = experiment: Example VI in-water applied ternary mixtures, greenhouse, transplanted paddy rice weeds; type: in vivo, Schoenoplectus juncoides (Roxb.) Palla; conditions: 17.5 gai/ha
Procedure: as §6, §7
The ACCase inhibitor component was applied on an active ingredient basis and included cyhalofop-R-butyl formulated as Clincher® G and metamifop formulated as Metamifop EC. […]
as §9
For formulated compounds, a measured amount was placed in an individual 100 or 200 mL glass vial and was dissolved in a volume of 1.25% (v/v) Agri-Dex® crop oil concentrate to obtain application solutions. […]

Compound: COc1cnc(OC)n2nc(NS(=O)(=O)c3c(OCC(F)F)cccc3C(F)(F)F)nc12 [Penoxsulam]
- Visual Weed Control (%) - 22 DAA ECHOR Obs (ECHOR [1]; 4.38 gai/ha): 45%
- Visual Weed Control (%) - 22 DAA ECHOR Obs (ECHOR [1]; 8.75 gai/ha): 53%
- Visual Weed Control (%) - 21 DAA ECHCG Obs (ECHCG [2]; 1.25 gai/ha, first sub-table): 17%
- Visual Weed Control (%) - 21 DAA ECHCG Obs (ECHCG [2]; 2.5 gai/ha, second sub-table): 55%
- Visual Weed Control (%) - 24 DAA ECHOR Obs (ECHOR [3]; Table 71, 5 gai/ha): 65%
- Visual Weed Control (%) - 24 DAA ECHOR Obs (ECHOR [3]; Table 71, 10 gai/ha): 93%
- Visual Weed Control (%) - 21 DAA CYPRO Obs (CYPRO; 1.25 gai/ha): 0%
- Visual Weed Control (%) - 24 DAA CYPRO Obs (CYPRO; 2.5 gai/ha): 0%
- Visual Weed Control (%) - 24 DAA CYPRO Obs (CYPRO; 5 gai/ha): 0%
- Visual Weed Control (%) - 21 DAA FIMMI Obs (FIMMI; 1.25 gai/ha): 33%
- Visual Weed Control (%) - 24 DAA FIMMI Obs (FIMMI; 2.5 gai/ha): 60%
- Visual Weed Control (%) - 21 DAA IPOHE Obs (IPOHE): 48%
- Visual Weed Control (%) - 22 DAA CYPIR Obs (CYPIR; 4.38 gai/ha): 50%
- Visual Weed Control (%) - 24 DAA SCPMA Obs (SCPMA): 30%

Compound: CCN(CC)CC.O=C(O)COc1nc(Cl)c(Cl)cc1Cl [Triclopyr TEA Salt]
- Visual Weed Control (%) - 21 DAA ECHCG Obs (ECHCG [4]): 0%
- Visual Weed Control (%) - 21 DAA SCPJU Obs (SCPJU [5]): 43%
- Visual Weed Control (%) - 21 DAA ECHCO Obs (ECHCO): 3%
- Visual Weed Control (%) - 21 DAA CYPIR Obs (CYPIR; 17.5 gae/ha): 0%

Compound: CCN(CC)CC.O=C(O)COc1nc(Cl)c(Cl)cc1Cl [Triclopyr TEA]
- Visual Weed Control (%) - 21 DAA ECHCG Obs (ECHCG [2]; 17.5 gai/ha, first set): 0%
- Visual Weed Control (%) - 21 DAA ECHCG Obs (ECHCG [2]; 35 gai/ha, second set): 0%
- Visual Weed Control (%) - 21 DAA SCPJU Obs (SCPJU [6]): 8%
